Assay [1] has as its system lens elasticity. Kind of assay: Pharmacological Test-1: lens elasticity after instillation 3 times per day for 12 to 15 days. The assay is classed as in vivo, C57BL/6J mice. The note with it: for Lens elasticity improvement: 0.03% (w/v) solution, 2.5 μL/eye, right eye, 3 times per day for 12 to 15 days, 8-month-old mice, vs vehicle control; for lens elasticity improving effect: at a concentration of 0.03%. How it is done:
The effects of compounds 1 to 4 on the lens elasticity were examined. The tests were conducted with reference to the methods described in Invest Ophthalmol Vis Sci, 57, 2851-2863, 2016.
A vehicle (aqueous solution) comprising 0.1% (w/v) of ethyl pyruvate, 0.269% (w/v) of sodium dihydrogenphosphate monohydrate (NaH2PO4.H2O), 0.433% (w/v) of di sodium hydrogenphosphate (Na2HPO4), 0.2% (w/v) of hydroxypropyl methylcellulose, 0.5% (w/v) of NaCl, 1.0% (w/v) of polyoxyl 35 castor oil (hereinafter also referred to as “CO35”), and purified water (appropriate amount) was prepared.
Each of compounds 1 to 4 was stirred with the addition of the vehicle to give a 0.03% (w/v) solution.
EV06 was stirred with the addition of the vehicle to give a 0.03% (w/v) solution. (Test method) 1) Each test sample (2.5 μL/eye) was instilled into the right eye of 8-month-old C57BL/6J mice with a Pipetman 3 times per day (around 9:00, 13:00, 17:00) for 12 to 15 days. 2) After the final instillation, the mice were euthanized by carbon dioxide inhalation, and then the eyeballs were extracted and rinsed with Hank's balanced salt solution (HESS). 3) The sclera near the optic nerve was cut with a razor, the lens was removed through the incision, and the removed lens was immersed in HESS. 4) The lens was placed on a glass slide, and an all-in-one fluorescence microscope BZ-9000 (Keyence) was used to capture an image of the lens (Image a). 5) Next, one cover glass (Corning^registered trade mark) 22×22 mm Square) was placed on the lens, and an image in which the thickness of the lens changed due to the weight was similarly captured (Image b). 6) A change in the lens diameter was calculated from the following Equation 1 wherein the lens diameter of Image a is subtracted from the lens diameter of Image b. Then, the lens elasticity improvement of each sample group compared with the vehicle control group was calculated from Equation 2 described below. The mean value of the vehicle control group was based on 5 eyes, the mean value of each of the sample groups of compounds 1 to 4 was based on 10 eyes, and the mean value of EV06 sample group was based on 9 eyes.
Change in lens diameter=Lens diameter in Image b of each test sample−Lens diameter in Image a of each test sample (Equation 1)
Lens elasticity improvement of each sample group=Mean change in lens diameter of each Test sample group−Mean change in lens diameter of Vehicle control group (Equation 2)

Assay [2] concerns lens elasticity. In words: Pharmacological Test-2: lens elasticity at different concentrations, instillation 3 times per day for 12 to 15 days. The assay is classed as in vivo, C57BL/6J mice. The note with it: for Lens elasticity improvement: 3 times per day for 12 to 15 days; for lens elasticity improvement compared with 1.5% EV06 group: 0.03% and 0.3% sample groups. The procedure:
The effects of Compounds 1, 3, and 4 on the lens elasticity were investigated at different concentrations.
Vehicle A (aqueous solution) comprising 0.1% (w/v) of ethyl pyruvate, 0.269% (w/v) of sodium dihydrogenphosphate monohydrate (NaH2PO4.H2O), 0.433% (w/v) of disodium hydrogenphosphate (Na2HPO4), 0.2% (w/v) of hydroxypropyl methylcellulose, 0.5% (w/v) of NaCl, 0.2% (w/v) of 0035, and purified water (appropriate amount) was prepared.
Vehicle B (emulsion) comprising 0.1% (w/v) of ethyl pyruvate, 0.269% (w/v) of sodium dihydrogenphosphate monohydrate (NaH2PO4.H2O), 0.433% (w/v) of disodium hydrogenphosphate (Na2HPO4), 0.2% (w/v) of hydroxypropyl methylcellulose, 0.5% (w/v) of NaCl, 0.2% (w/v) of CO35, 0.6% benzyl benzoate, and purified water (appropriate amount) was prepared.
Vehicle C (aqueous solution) comprising 0.1% (w/v) of ethyl pyruvate, 0.269% (w/v) of sodium dihydrogenphosphate monohydrate (NaH2PO4.H2O), 0.433% (w/v) of disodium hydrogenphosphate (Na2HPO4), 0.2% (w/v) of hydroxypropyl methylcellulose, 0.5% (w/v) of NaCl, 1.0% (w/v) of 0035, and purified water (appropriate amount) was prepared.
Vehicle D (emulsion) comprising 0.1% (w/v) of ethyl pyruvate, 0.269% (w/v) of sodium dihydrogenphosphate monohydrate (NaH2PO4.H2O), 0.433% (w/v) of disodium hydrogenphosphate (Na2HPO4), 0.2% (w/v) of hydroxypropyl methylcellulose, 0.5% (w/v) of NaCl, 1.0% (w/v) of CO35, 3.0% benzyl benzoate, and purified water (appropriate amount) was prepared.
A diluent (aqueous solution) comprising 0.1% (w/v) of ethyl pyruvate, 0.269% (w/v) of sodium dihydrogenphosphate monohydrate (NaH2PO4.H2O), 0.433% (w/v) of disodium hydrogenphosphate (Na2HPO4), 0.2% (w/v) of hydroxypropyl methylcellulose, 0.5% (w/v) of NaCl, and purified water (appropriate amount) was prepared.
Compound 1 was stirred with the addition of Vehicle C to prepare a 1.5% (w/v) emulsion, and the emulsion was diluted with the diluent to give a 0.3% (w/v) emulsion. Further, the resulting 0.3% (w/v) emulsion was diluted with the diluent to give a 0.03% (w/v) emulsion. Further, the resulting 0.03% (w/v) emulsion was diluted with the diluent to give a 0.003% (w/v) emulsion.
Compound 3 was stirred with the addition of Vehicle C to give a 1.5% (w/v) solution, and the resulting solution was diluted to give a 0.3% (w/v) solution. Further, the resulting 0.3% (w/v) solution was diluted with Vehicle A to give a 0.03% (w/v) solution. Further, the resulting 0.03% (w/v) solution was diluted with Vehicle A to give a 0.003% (w/v) solution.
Compound 4 was stirred with the addition of Vehicle D to give a 1.5% (w/v) emulsion, and the resulting emulsion was diluted with the diluent to prepare a 0.3% (w/v) emulsion. Further, the resulting 0.3% (w/v) emulsion was diluted with the diluent to give a 0.03% (w/v) emulsion. Further, the resulting 0.03% (w/v) emulsion was diluted with the diluent to give a 0.003% (w/v) emulsion.
EV06 was stirred with the addition of Vehicle A to give a 1.5% (w/v) solution, which was used for comparison to the samples of Compound 1 and 3.
EV06 was sonicated with the addition of Vehicle B to give a 1.5% (w/v) emulsion, which was used for comparison to Compound 4 sample.
(Test method) 1) Each test sample (2.5 μL/eye) was instilled into the right eye of 7 to 8-month-old C57BL/6J mice with a Pipetman 3 times per day (around 9:00, 13:00 and 17:00) for 12 to 15 days. 2) After the final instillation, the mice were euthanized by carbon dioxide inhalation, and then the eyeballs were extracted and rinsed with Hank's balanced salt solution (HESS). 3) The sclera near the optic nerve was cut with a razor, the lens was removed through the incision, and the removed lens was immersed in HESS. 4) The lens was placed on a glass slide, and an all-in-one fluorescence microscope BZ-9000 (Keyence) was used to capture an image of the lens (Image a). […]

[3] abbreviates: 0.003% (w/v) sample, 7 to 8-month-old mice.
The mark [4] stands for this setting: 0.03% (w/v) sample, 7 to 8-month-old mice.
[5] abbreviates: 0.3% (w/v) sample, 7 to 8-month-old mice.

Take `O=C(CCCC[C@@H]1CCSS1)OCCN1CCN(CCO)CC1` [Compound 3]: the Lens elasticity improvement with lens elasticity [1] came out at 49.9 μm; with lens elasticity [2] (setting [3]) it was 1.3 μm; in the assay on lens elasticity [2] (setting [4]) it was 30.7 μm; in the assay on lens elasticity [2] (setting [5]), 41.8 μm. The “lens elasticity improving effect” value in the assay on lens elasticity [1] is on record as “potent lens elasticity improving effect”. Moreover, in the assay with lens elasticity [2], the “lens elasticity improvement compared with 1.5% EV06 group” value was “equivalent to or better than 1.5% EV06 group”.
Consider `C[N+](C)(C)CCOC(=O)CCCC[C@@H]1CCSS1.[Cl-]` [EV06, Lipoic acid choline ester, reference compound], for which the Lens elasticity improvement in the assay with lens elasticity [1] is on record as 4.0 μm; with lens elasticity [2] (1.5% (w/v) emulsion in Vehicle B, Table 4 (comparison to Compound 4)), 46.8 μm; in the assay with lens elasticity [2] (1.5% (w/v) solution in Vehicle A, Table 2 (comparison to Compound 1)) it was 30.8 μm; in the assay with lens elasticity [2] (1.5% (w/v) solution in Vehicle A, Table 3 (comparison to Compound 3)), 18.2 μm. For the same compound, the “lens elasticity improving effect” value in the assay with lens elasticity [1] is “did not show lens elasticity improving effect”.
For the compound `CC(C)=CCOC(=O)CCCC[C@@H]1CCSS1` [Compound 1, 3-Methyl-2-buten-1-yl (R)-5-(1,2-dithiolan-3-yl)pentanoate], the Lens elasticity improvement was 48.0 μm in the assay with lens elasticity [1], 13.0 μm with lens elasticity [2] (setting [3]), 37.1 μm in the assay on lens elasticity [2] (setting [4]) and 36.8 μm in the assay with lens elasticity [2] (setting [5]). For the same compound, the “lens elasticity improving effect” value with lens elasticity [1] is on record as “potent lens elasticity improving effect”. Moreover, the “lens elasticity improvement compared with 1.5% EV06 group” value with lens elasticity [2] was “equivalent to or better than 1.5% EV06 group”.

Values taken from patent publication US20220151989A1, “LIPOIC ACID PRODRUG” (SANTEN PHARMACEUTICAL CO., LTD., priority 2019, published 2022).
